According to patent publication US6900193B1, “Structural modification of 19-norprogesterone I: 17-α-substituted-11-β-substituted-4-aryl and 21-substituted 19-norpregnadienedione as new antiprogestational agents” (The United States of America as represented by the …, priority 1996, dated 2005):
“Also recorded” adds a separate entry of the source. Like-named read-outs stand apart in the source and are kept apart here.

Key:
[1] = Lability to base under reverse-phase HPLC conditions; assay type: physicochemical; settings: MeOH/H2O/Et3N reverse-phase conditions; converts to compound 8, also at pH 7.0
Description: Under nitrogen, a mixture of the crude ethoxyethylidenedioxy compound (18, 0.56 g., 1.11 mmol), 0.2 M NaOAc (3 mL, […]) in methanol (30 mL) was heated to reflux. Monitoring by TLC (5% acetone/CH2Cl2) indicated a complete reaction in 3.5 hours. The methanol was removed in vacuo under a stream of nitrogen, the residue diluted with water (˜50 mL) and extracted with CH2Cl2 (3×). The organic fractions were combined, washed with H2O (2×) and brine (1×), dried over Na2SO4, filtered and concentrated in vacuo to give 0.56 g of the crude 21-ol, 17α-acetate (41) as a foam. Purification of this material via flash chromatography (7.5% acetone/CH2Cl2) followed by trituration with ether/pentane gave 0.32 g of the target compound, 21-OH, 17α-acetate as an off-white solid in […]; m.p.=205-210° C. The NMR indicated this product contains 5.3% of the 17α-OH, 21-OAc (8) isomer as a contaminant. […] This transesterification occurs at an appreciate rate even when the solvent system is buffered at pH 7.0 with phosphoric acid. The purity of the acetate mixture (8 and 41) was ascertained at >99% by normal phase HPLC analysis (Waters Associates μPorasil Silica using CH3CN/CH2Cl2 (40:60) with a flow rate of 2 mL/min at λ=302 nm). […] The presence of the 17α-OH, 21-OAc isomer (8) to the extent of 5.3% could be detected by the appearance of two doublets, one at 4.88 and the other at 5.11, both with J=18.3 Hz.

implantation [2] = settings: man; cited from earlier work
implantation [3] = settings: rat; cited from earlier work
ovulation [4] = settings: Baulieu, et al.; cited from earlier work
[5] = test system: early stages of pregnancy; settings: administered during the early stages of pregnancy; cited from earlier work
ovulation [6] = settings: Dao, et al.; cited from earlier work
Cushing's syndrome = settings: cited from earlier work
implantation [7] = settings: guinea pig; cited from earlier work
[8] = test system: estrogen-insensitive T47Dco human breast cancer cells; settings: Horwitz 1985; cited from earlier work
[9] = test system: pregnancy (number and condition of conceptuses); test: Postcoital test; assay type: in vivo, rat; settings: oral; for postcoital contraceptive activity relative to the standard, in words: days 0-3 of gestation, versus 69B; for Postcoital MED100: rat, days 0-3
[10] = target: T1, human isoform A progesterone receptor (Homo sapiens, UniProt P06401); test: Relative binding affinity, human isoform A progesterone receptor; settings: for BINDING AFFINITY Progester, figure in ( ): relative binding affinity of the human isoform A progesterone receptor: Table 2, figure in parentheses
T1 sequence (P06401 1-769 isoform P06401-2): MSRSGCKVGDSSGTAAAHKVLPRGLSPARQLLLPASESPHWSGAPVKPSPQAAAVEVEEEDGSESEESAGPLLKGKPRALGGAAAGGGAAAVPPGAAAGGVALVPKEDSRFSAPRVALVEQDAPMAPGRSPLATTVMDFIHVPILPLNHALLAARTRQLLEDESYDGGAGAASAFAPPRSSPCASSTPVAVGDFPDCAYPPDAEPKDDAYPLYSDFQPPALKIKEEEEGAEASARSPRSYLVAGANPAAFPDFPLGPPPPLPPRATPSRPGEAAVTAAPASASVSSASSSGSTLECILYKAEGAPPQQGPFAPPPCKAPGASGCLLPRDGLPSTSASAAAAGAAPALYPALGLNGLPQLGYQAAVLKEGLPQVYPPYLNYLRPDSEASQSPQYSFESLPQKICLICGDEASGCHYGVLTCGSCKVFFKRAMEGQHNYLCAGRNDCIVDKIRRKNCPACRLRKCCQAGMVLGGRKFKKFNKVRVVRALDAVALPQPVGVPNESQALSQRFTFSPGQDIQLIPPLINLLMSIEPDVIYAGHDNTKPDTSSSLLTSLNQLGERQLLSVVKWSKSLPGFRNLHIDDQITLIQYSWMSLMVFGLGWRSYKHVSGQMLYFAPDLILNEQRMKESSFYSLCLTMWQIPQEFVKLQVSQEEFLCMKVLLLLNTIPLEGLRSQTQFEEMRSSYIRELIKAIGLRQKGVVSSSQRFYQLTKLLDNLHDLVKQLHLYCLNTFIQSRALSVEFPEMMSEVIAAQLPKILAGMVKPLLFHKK

ovulation [11] = test: Antiovulatory test; assay type: in vivo, rat; settings: for Antiovulatory MED100: oral, rat, single dose at noon on day of proestrus
Description: Antiovulatory Test […] female rats of the Sprague-Dawley strain weighing 200 to 250 g were maintained under standard laboratory conditions, 14 hours of light and 10 hours of darkness each day. Vaginal washings were obtained daily and evaluated microscopically to establish the estrous cycle of each animal. […] Each dose group consisted of eight rats and one group served as the vehicle control. Animals were dosed at noon on the day of proestrus and sacrificed 24 hours later when ova can usually be visualized in the distended ampulla of the oviduct using a dissecting microscope. The oviducts were excised, an incision made in the distended ampulla and the ova teased out in a drop of water on a microscope slide so that the number shed could be counted. Historically, control animals shed between 12 and 14 ova during each estrous cycle.

[12] = test system: follicular development, ovulation, endometrial maturation; test: Single oral dose in human subjects (unpublished data); assay type: in vivo
[13] = in vivo

CC(=O)O[C@]1(C(=O)CO)CCC2C3CCC4=CC(=O)CCC4=C3C(c3ccc(N(C)C)cc3)C[C@@]21C (stereo partly drawn) [Compound 41, 17α-acetoxy-21-hydroxy-11β-[4-(N,N-dimethylamino)phenyl]-19-norpregna-4,9-diene-3,20-dione]
stability to base [1]: extremely labile to base

CC#C[C@]1(O)CC[C@H]2[C@@H]3CCC4=CC(=O)CCC4=C3[C@@H](c3ccc(N(C)C)cc3)C[C@@]21C [mifepristone]
prevention of implantation (implantation [2]): prevent implantation
prevention of implantation (implantation [3]): prevent implantation
effect on ovulation in human subjects (ovulation [4]): affect ovulation
antiprogestational/contragestative effect [5]: effective antiprogestational/contragestative agent
inhibition of ovulation in the rat (ovulation [6]): inhibit ovulation
treatment of Cushing's syndrome (Cushing's syndrome; Nieman, et al. 1985): successfully used
antiglucocorticoid activity (Cushing's syndrome; in vivo): very significant antiglucocorticoid activity
prevention of implantation (implantation [7]): prevent implantation
growth inhibition of T47Dco human breast cancer cells [8]: growth-inhibitory properties

COCC(=O)[C@@]1(OC)CC[C@H]2[C@@H]3CCC4=CC(=O)CCC4=C3[C@@H](c3ccc(N(C)C)cc3)C[C@@]21C [Compound 113a, 17α,21-Dimethoxy-11β-[4-(N,N-dimethylamino)phenyl]-19-norpregna-4,9-diene-3,20-dione]
postcoital contraceptive activity relative to the standard, in words [9]: about half as effective as compound 69B
binding affinity for the human progesterone receptor (isoform A), in words [10]: high binding affinity
BINDING AFFINITY Progester, figure in ( ): relative binding affinity of the human isoform A progesterone receptor [10]: 237

CC(=O)OCC(=O)[C@@]1(OC(C)=O)CC[C@H]2[C@@H]3CCC4=CC(=O)CCC4=C3[C@@H](c3ccc(C(C)=O)cc3)C[C@@]21C [Compound 106b, 17α,21-Diacetoxy-11β-(4-acetylphenyl)19-norpregna-4,9-diene-3,20-dione]
BINDING AFFINITY Progester, figure in ( ): relative binding affinity of the human isoform A progesterone receptor [10]: 172

COCC(=O)C1(OC(C)=O)CCC2C3CCC4=CC(=O)CCC4=C3C(c3ccc(N4CCCCC4)cc3)CC21C (stereo not drawn) [Compound 123a, 17α-Acetoxy-1113-[4-(N-piperidino)phenyl]-21-methoxy-19-norpregna-4,9-diene-3,20-dione]
BINDING AFFINITY Progester, figure in ( ): relative binding affinity of the human isoform A progesterone receptor [10]: 140

CC(=O)O[C@]1(C(C)=O)CC[C@H]2[C@@H]3CCC4=CC(=O)CCC4=C3[C@@H](c3ccc(N4CCCCC4)cc3)C[C@@]21C [Compound 71, 17α-Acetoxy-11β-[4(N-Piperidino)phenyl]-19-norpregna-4,9-diene-3,20-dione]
postcoital contraceptive activity relative to the standard, in words [9]: about four times the postcoital contraceptive activity of the standard; also recorded: four times as potent as the standard
Postcoital MED100 [9]: 0.5 mg/day
Antiovulatory MED100 (ovulation [11]): >16 mg
antiovulatory activity relative to the standard (ovulation [11]; percent of the activity of 69B): about 5%
dose level at which not fully active, antiovulatory (ovulation [11]; versus 69B): > 16 times the MED100 for the standard
BINDING AFFINITY Progester, figure in ( ): relative binding affinity of the human isoform A progesterone receptor [10]: 203

CC(=O)O[C@]1(C(C)=O)CC[C@H]2[C@@H]3CCC4=CC(=O)CCC4=C3[C@@H](c3ccc(N(C)C)cc3)C[C@@]21C [Compound 69B, 17α-acetoxy-11β-(4-N,N-dimethylaminophenyl)-19-norpregna-4,9-diene-3,20-dione, reference compound]
Postcoital MED100 [9]: 2 mg/day
Antiovulatory MED100 (ovulation [11]): 1 mg
inhibition of ovulation in the rat (ovulation [6]): inhibit ovulation
BINDING AFFINITY Progester, figure in ( ): relative binding affinity of the human isoform A progesterone receptor [10]: 234
effect in human subjects following a single oral dose [12]: affect both follicular development and ovulation as well as endometrial maturation
blood levels following oral administration [13]: Higher blood levels
